These results are taken from patent US8008286B2, “Method for treatment of neuropathic pain” (University of Virginia Patent Foundation, priority 2006, dated 2011).

The test system of test [1] is rat with a crushed sciatic nerve. The test can be described thus: Pain assay, 'trauma' model of neuropathic pain (crushed sciatic nerve), paw withdrawal latency with heat lamp. The conditions noted are these: rats, 10 mg/kg IP once on day 0, tested each day. In kind it is in vivo. As for the experimental part: Test compound, VPC01091 (Drug T, mixture of all isomers), was dissolved in 2% hydroxypropyl beta-cyclodextrin in water and administered to the test group of laboratory rats. The vehicle (Drug V: 2% hydroxypropyl beta-cyclodextrin in water) was administered to the control group of laboratory rats. Each group included 11 animals.
The identities of ‘Drug T’ and ‘Drug V’ were maintained in secret to prevent bias. The test solutions (test compound or vehicle) were intraperitoneally (IP) administered once (day 0), the dose was 10 mg/kg body weight. On day 0, each of the 22 animals was anesthetized, the sciatic nerve bundle on the right side exposed surgically, and crushed mechanically. This is known as the ‘trauma’ model of neuropathic pain. The animals were tested each day for the time required to lift either paw after illumination with small heat lamp.

Test [2] has as its system sciatic nerve injury (CCI) model. The test can be described thus: Sciatic nerve injury (CCI) model of neuropathic pain, mechanical allodynia. It is filed as in vivo, rat. The conditions noted are these: rats, 3 mg/kg p.o. once a day for 5 days, started 2 weeks after nerve injury. The text has this: In these models, oral treatment with VPC01091-D was started 2 weeks following nerve injury, once the pain was established. A control group received only vehicle. Following once a day dosing for 5 days, […].) reversed mechanical allodynia by 42±8% in the CCI model. (See FIG. 5).

The target in a further test is T1, SPHK2 enzyme (Homo sapiens, UniProt Q9NRA0).
T1 sequence (Q9NRA0 1-654): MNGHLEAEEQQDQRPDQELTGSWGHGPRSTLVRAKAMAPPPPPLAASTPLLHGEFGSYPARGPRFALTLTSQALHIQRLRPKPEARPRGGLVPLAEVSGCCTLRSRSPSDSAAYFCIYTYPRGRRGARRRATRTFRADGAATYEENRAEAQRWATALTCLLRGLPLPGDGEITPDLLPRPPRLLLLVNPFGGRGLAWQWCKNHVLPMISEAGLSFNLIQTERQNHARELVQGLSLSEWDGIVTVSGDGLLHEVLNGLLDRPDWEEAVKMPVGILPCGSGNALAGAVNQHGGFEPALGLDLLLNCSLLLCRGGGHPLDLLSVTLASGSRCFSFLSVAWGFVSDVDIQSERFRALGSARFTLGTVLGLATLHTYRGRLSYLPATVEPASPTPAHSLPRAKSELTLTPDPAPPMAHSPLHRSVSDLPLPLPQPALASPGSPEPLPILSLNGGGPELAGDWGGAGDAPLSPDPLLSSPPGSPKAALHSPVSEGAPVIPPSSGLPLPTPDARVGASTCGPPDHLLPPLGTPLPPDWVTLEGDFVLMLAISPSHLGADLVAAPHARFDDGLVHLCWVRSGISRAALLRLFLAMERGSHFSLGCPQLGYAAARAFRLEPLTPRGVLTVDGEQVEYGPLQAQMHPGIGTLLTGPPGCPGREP
The test can be described thus: Phosphorylation by the SPHK2 enzyme in vitro. It is filed as biochemical. The conditions noted are these: separated isomers of VPC01091, in vitro. As for the experimental part:
These compounds can be prepared as a mixture and separated by chromatography. Exemplary conditions for separation are as follows: Column: Chiralpak AD 4.6 mm ID×250 mm, Mobile Phase: Hex/EtOH/MeOH/DEA=95/2.5/2.5/0.03, Flow Rate: 1 mL/min, Detector: UV 220 nm, Column Temp: 40° C., or Column Temp: 25° C.

Test [3] relates to spinal nerve injury (SNL) model. The test can be described thus: Spinal nerve injury (SNL) model of neuropathic pain, mechanical allodynia. In kind it is in vivo, rat. The conditions noted are these: rats, 3 mg/kg p.o., started 2 weeks after nerve injury. An excerpt: In these models, oral treatment with VPC01091-D was started 2 weeks following nerve injury, once the pain was established. A control group received only vehicle.

Take `CCCCCCCCc1ccc(C2CCC(N)(CO)C2)cc1` (centres unmarked) [VPC01091, (1-amino-3-(4-octylphenyl)cyclopentyl)methanol]: in test [1], the “analgesic effect (PWL time increases after injury), only on the affected side” value is listed as “exhibited an analgesic effect” and the “development of thermal hyperalgesia in the affected (crushed nerve) paw (PWL)” value is on record as “prevented the development of thermal hyperalgesia”.

Compound `CCCCCCCCc1ccc([C@H]2CC[C@](N)(CO)C2)cc1` [VPC01091-D] yielded a reversed mechanical allodynia in test [2] of 42±8%. Besides, the “phosphorylated by the SPHK2 enzyme in vitro” value on SPHK2 enzyme is on record as “not phosphorylated”. In addition, in test [3], the analgesic activity turned out to be 50±10%.
